Experimental data published in the supplement of paper PMC10307832.

Experiments:
Assay in all cases: relative viability (nuclei count vs DMSO), 5 days (fraction); higher = more cells survive
ChaGo-K-1 = system: ChaGo-K-1
Summary of the method: (§1)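 Lung cancer cell lines in 1536-well plates were dosed by pin tool the day after seeding, either with one drug alone or with a fixed anchor-drug dose plus five library-drug doses (not always all listed) in √10 steps. After 5 days, cells were fixed and their nuclei stained in one step (final 0.05% Triton X-100, 1% formaldehyde, 1 ug/ml Hoechst), then counted on 4× images. Relative viability is the nuclei count in treated wells divided by that in vehicle wells. Values are medians of duplicate plates.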

EMC-BAC-2 = system: EMC-BAC-2
Summary of the method: as §1

EPLC-272H = system: EPLC-272H
Summary of the method: as §1

H3255 = system: H3255
Summary of the method: as §1

HCC-44 = system: HCC-44
Summary of the method: as §1

HCC-827 = system: HCC-827
Summary of the method: as §1

LCLC-103H = system: LCLC-103H
Summary of the method: as §1

LCLC-97TM1 = system: LCLC-97TM1
Summary of the method: as §1

NCI-H1355 = system: NCI-H1355
Summary of the method: as §1

NCI-H1395 = system: NCI-H1395
Summary of the method: as §1

NCI-H1651 = system: NCI-H1651
Summary of the method: as §1

NCI-H1793 = system: NCI-H1793
Summary of the method: as §1

NCI-H1944 = system: NCI-H1944
Summary of the method: as §1

NCI-H1993 = system: NCI-H1993
Summary of the method: as §1

NCI-H2085 = system: NCI-H2085
Summary of the method: as §1

NCI-H2087 = system: NCI-H2087
Summary of the method: as §1

NCI-H23 = system: NCI-H23
Summary of the method: as §1

NCI-H2405 = system: NCI-H2405
Summary of the method: as §1

NCI-H322M = system: NCI-H322M
Summary of the method: as §1

NCI-H520 = system: NCI-H520
Summary of the method: as §1

NCI-H650 = system: NCI-H650
Summary of the method: as §1

SK-MES-1 = system: SK-MES-1
Summary of the method: as §1

UMC-11 = system: UMC-11
Summary of the method: as §1

Work on `COc1cc(N2CCC(C(N)=O)CC2)ccc1Nc1nc(N)c(Cl)c(Nc2ccccc2S(=O)(=O)C(C)C)n1` [HG-5-88-01] + O=C(c1cc(Cc2n[nH]c(=O)c3ccccc23)ccc1F)N1CCN(C(=O)C2CC2)CC1 [Olaparib] (partner 8 µM) yielded a relative viability (ChaGo-K-1; first compound 0.04 µM) of 0.421, a relative viability (ChaGo-K-1; first compound 0.1265 µM) of 0.418 and a relative viability (ChaGo-K-1; first compound 0.4 µM) of 0.455. The relative viability (ChaGo-K-1; first compound 1.265 µM) was 0.421, the relative viability (ChaGo-K-1; first compound 4 µM) was 0.393 and the relative viability (EMC-BAC-2; first compound 0.04 µM) was 0.482. For the same compound, the relative viability (EMC-BAC-2; first compound 0.1265 µM) was 0.526, the relative viability (EMC-BAC-2; first compound 0.4 µM) was 0.615 and the relative viability (EMC-BAC-2; first compound 1.265 µM) was 0.459. It also gave a relative viability (EMC-BAC-2; first compound 4 µM) of 0.46, a relative viability (EPLC-272H; first compound 0.04 µM) of 0.976 and a relative viability (EPLC-272H; first compound 0.1265 µM) of 0.785. It also gave a relative viability (EPLC-272H; first compound 0.4 µM) of 0.959, a relative viability (EPLC-272H; first compound 1.265 µM) of 0.495 and a relative viability (EPLC-272H; first compound 4 µM) of 0.0585. It also gave a relative viability (H3255; first compound 0.04 µM) of 0.556, a relative viability (H3255; first compound 0.1265 µM) of 0.593 and a relative viability (H3255; first compound 0.4 µM) of 0.555. The relative viability (H3255; first compound 4 µM) was 0.531, the relative viability (HCC-44; first compound 0.04 µM) was 0.912 and the relative viability (HCC-44; first compound 0.1265 µM) was 0.957. The relative viability (HCC-44; first compound 0.4 µM) was 0.934, the relative viability (HCC-44; first compound 1.265 µM) was 0.921 and the relative viability (HCC-44; first compound 4 µM) was 0.919. The relative viability (HCC-827; first compound 0.04 µM) was 0.695, the relative viability (HCC-827; first compound 0.1265 µM) was 0.676 and the relative viability (HCC-827; first compound 0.4 µM) was 0.363. It also gave a relative viability (HCC-827; first compound 1.265 µM) of 0.203, a relative viability (HCC-827; first compound 4 µM) of 0.24 and a relative viability (LCLC-103H; first compound 0.04 µM) of 0.714. The relative viability (LCLC-103H; first compound 0.1265 µM) was 0.748, the relative viability (LCLC-103H; first compound 0.4 µM) was 0.697 and the relative viability (LCLC-103H; first compound 1.265 µM) was 0.654. The relative viability (LCLC-103H; first compound 4 µM) was 0.719, the relative viability (LCLC-97TM1; first compound 0.04 µM) was 0.434 and the relative viability (LCLC-97TM1; first compound 0.1265 µM) was 0.396. It also gave a relative viability (LCLC-97TM1; first compound 0.4 µM) of 0.398, a relative viability (LCLC-97TM1; first compound 1.265 µM) of 0.26 and a relative viability (LCLC-97TM1; first compound 4 µM) of 0.193. For the same compound, the relative viability (NCI-H1355; first compound 0.04 µM) was 0.833, the relative viability (NCI-H1355; first compound 0.1265 µM) was 0.768 and the relative viability (NCI-H1355; first compound 0.4 µM) was 0.74. For the same compound, the relative viability (NCI-H1355; first compound 1.265 µM) was 0.706, the relative viability (NCI-H1355; first compound 4 µM) was 0.584 and the relative viability (NCI-H1395; first compound 0.04 µM) was 0.499. For the same compound, the relative viability (NCI-H1395; first compound 0.1265 µM) was 0.467, the relative viability (NCI-H1395; first compound 0.4 µM) was 0.48 and the relative viability (NCI-H1395; first compound 1.265 µM) was 0.472. It also gave a relative viability (NCI-H1395; first compound 4 µM) of 0.487, a relative viability (NCI-H1651; first compound 0.04 µM) of 0.189 and a relative viability (NCI-H1651; first compound 0.1265 µM) of 0.199. For the same compound, the relative viability (NCI-H1651; first compound 0.4 µM) was 0.176, the relative viability (NCI-H1651; first compound 1.265 µM) was 0.234 and the relative viability (NCI-H1651; first compound 4 µM) was 0.164. For the same compound, the relative viability (NCI-H1793; first compound 0.04 µM) was 0.878, the relative viability (NCI-H1793; first compound 0.1265 µM) was 0.84 and the relative viability (NCI-H1793; first compound 0.4 µM) was 0.848. It also gave a relative viability (NCI-H1793; first compound 1.265 µM) of 0.651, a relative viability (NCI-H1793; first compound 4 µM) of 0.847 and a relative viability (NCI-H1944; first compound 0.04 µM) of 0.414. The relative viability (NCI-H1944; first compound 0.1265 µM) was 0.374, the relative viability (NCI-H1944; first compound 0.4 µM) was 0.479 and the relative viability (NCI-H1944; first compound 1.265 µM) was 0.466. The relative viability (NCI-H1944; first compound 4 µM) was 0.466, the relative viability (NCI-H1993; first compound 0.04 µM) was 1.12 and the relative viability (NCI-H1993; first compound 0.1265 µM) was 1.03. For the same compound, the relative viability (NCI-H1993; first compound 0.4 µM) was 0.949, the relative viability (NCI-H1993; first compound 4 µM) was 0.842 and the relative viability (NCI-H2085; first compound 0.04 µM) was 0.853. It also gave a relative viability (NCI-H2085; first compound 0.1265 µM) of 0.753, a relative viability (NCI-H2085; first compound 0.4 µM) of 0.833 and a relative viability (NCI-H2085; first compound 1.265 µM) of 0.765. The relative viability (NCI-H2085; first compound 4 µM) was 0.871, the relative viability (NCI-H2087; first compound 0.04 µM) was 0.557 and the relative viability (NCI-H2087; first compound 0.1265 µM) was 0.645. The relative viability (NCI-H2087; first compound 0.4 µM) was 0.585, the relative viability (NCI-H2087; first compound 1.265 µM) was 0.536 and the relative viability (NCI-H2087; first compound 4 µM) was 0.502. It also gave a relative viability (NCI-H23; first compound 0.04 µM) of 0.321, a relative viability (NCI-H23; first compound 0.1265 µM) of 0.279 and a relative viability (NCI-H23; first compound 0.4 µM) of 0.303. The relative viability (NCI-H23; first compound 1.265 µM) was 0.334, the relative viability (NCI-H23; first compound 4 µM) was 0.194 and the relative viability (NCI-H2405; first compound 0.04 µM) was 0.885. It also gave a relative viability (NCI-H2405; first compound 0.1265 µM) of 0.904, a relative viability (NCI-H2405; first compound 0.4 µM) of 0.807 and a relative viability (NCI-H2405; first compound 1.265 µM) of 0.524. For the same compound, the relative viability (NCI-H2405; first compound 4 µM) was 0.75, the relative viability (NCI-H322M; first compound 0.04 µM) was 0.809 and the relative viability (NCI-H322M; first compound 0.1265 µM) was 0.699. It also gave a relative viability (NCI-H322M; first compound 0.4 µM) of 0.913, a relative viability (NCI-H322M; first compound 1.265 µM) of 0.485 and a relative viability (NCI-H322M; first compound 4 µM) of 0.686. It also gave a relative viability (NCI-H520; first compound 0.04 µM) of 0.289, a relative viability (NCI-H520; first compound 0.1265 µM) of 0.33 and a relative viability (NCI-H520; first compound 0.4 µM) of 0.389. It also gave a relative viability (NCI-H520; first compound 1.265 µM) of 0.327, a relative viability (NCI-H520; first compound 4 µM) of 0.363 and a relative viability (NCI-H650; first compound 0.04 µM) of 0.423. It also gave a relative viability (NCI-H650; first compound 0.1265 µM) of 0.366, a relative viability (NCI-H650; first compound 0.4 µM) of 0.408 and a relative viability (NCI-H650; first compound 1.265 µM) of 0.321. It also gave a relative viability (NCI-H650; first compound 4 µM) of 0.239, a relative viability (SK-MES-1; first compound 0.04 µM) of 0.657 and a relative viability (SK-MES-1; first compound 0.1265 µM) of 0.658. It also gave a relative viability (SK-MES-1; first compound 0.4 µM) of 0.689, a relative viability (SK-MES-1; first compound 1.265 µM) of 0.508 and a relative viability (SK-MES-1; first compound 4 µM) of 0.564. For the same compound, the relative viability (UMC-11; first compound 0.04 µM) was 0.35, the relative viability (UMC-11; first compound 0.1265 µM) was 0.399 and the relative viability (UMC-11; first compound 0.4 µM) was 0.45. The relative viability (UMC-11; first compound 1.265 µM) was 0.428 and the relative viability (UMC-11; first compound 4 µM) was 0.274.
